Experiments:
Type in all cases: cell-based, human
[1] = tested on: other cytokines, chemokines, and growth factors; assay: Bioplex analysis of other secreted proteins in TNF-α-induced IB3-1 cells; conditions: 1 μM, TNF-α-stimulated IB3-1 cells, all secreted proteins analyzed except IP-10
Protocol: (§1) The Bioplex cytokine assay is designed for the multiplexed quantitative measurement of multiple cytokines in a single well using as little as 50 μl of sample. In our experiments, the premixed multiplex beads (27-plex) of the Bioplex human cytokines were used. 50 μl of cytokine standards or samples (supernatants recovered from treated cells and diluted to 2 μg/μl) were incubated with 50 μl of anticytokine conjugated beads in 96-well filter plates for 30 min at room temperature with shaking. Plates were washed by vacuum filtration three times with 100 μl of Bioplex wash buffer, 25 μl of diluted detection antibody were added, and plates were incubated for 30 min at room temperature with shaking. After three filter washes, 50 μl of streptavidin-phycoerythrin were added, and the plates were incubated for 10 min at room temperature with shaking. Finally, plates were washed by vacuum filtration three times, beads were suspended in Bioplex assay buffer, and samples were analyzed on a Bio-Rad 96-well plate reader using the Bioplex Suspension Array System and Bioplex Manager software (Bio-Rad Laboratories Inc., Hercules, CA).
(§2) In order to verify the effects on the secretion of IL-8 by IB3-1 cells, Luminex technology was employed to detect and quantify proteins secreted into the medium. […]

IL-8 mRNA = assay: RT-qPCR quantification of IL-8 mRNA in TNF-α-induced IB3-1 cells; conditions: Homo sapiens, IB3-1, 24 h, TNF-α-induced IB3-1 cells, RT-qPCR, na = not active at the used concentrations
Protocol: Monolayers of 60% confluent IB3-1 cells were seeded in 6- or 12-well plates in LHC-8 medium in the presence of 5% FBS. After 24 h, pure derivatives were added, 5 h before stimulation with TNF-α 80 ng/ml (ORF Genetics, Kopavogur, Iceland), and incubated for a further 24 h. Total RNA was extracted using TRIzol Reagent (Sigma-Aldrich, St. Louis, MO) following the manufacturer's instructions. Reverse transcription (RT) was performed using Reverse Transcription System kit (Promega, Madison, WI): 1 μg of total RNA was reverse transcribed in the presence of 5 mM MgCl2, 1X reverse transcription buffer (10 mM Tris-HCl, 50 mM KCl, and 0.1% Triton X-100), 1 mM each dNTPs, 20 U recombinant Rnasin Ribonuclease Inhibitor, 15 U AMV Reverse Transcriptase, and 0.5 μg oligo(dT)15 primers in a total volume of 20 μl for 10 min at 70°C and 60 min at 42°C. The resulting cDNA was quantified by relative quantitative real-time PCR (real-time qPCR). For real-time qPCR, 1 μl of cDNA was used for each SYBR Green reaction to quantify the relative expression of IL-8. Each 25 μl of total reaction volume contained 1 μl of cDNA, 10 pmol of primers, 1 iQTM SYBR Green Supermix (Bio-Rad Laboratories Inc., Hercules, CA). Real-time PCRs were performed for a total of 40 cycles (denaturation, 95°C for 10 s; annealing, 68°C for 30 s for IL-8, 65°C for 30 s for IL-6; elongation, 72°C for 60 s) using an iCycler IQ5 (Bio-Rad Laboratories Inc., Hercules, CA). Primer sequences were as follows: IL-8 forward: 5′-GTGCAGTTTTGCCAAGGAGT-3′ and IL-8 reverse: 5′-TTATGAATTCTCAGCCCTCTTCAAAAACTTCTC-3′. The relative proportions of each amplified template were determined utilizing the threshold cycle (CT) value for each performed PCR. The DDCt method was used to compare gene expression data. Each sample was quantified in duplicate. Changes in mRNA expression level were calculated following normalization with the GAPDH calibrator gene (housekeeping gene) and expressed as fold change over untreated samples [24]. Duplicates of negative controls (no template cDNA) were also run with every experimental plate to assess specificity and indicate potential contamination.
With the aim to study the effective anti-inflammatory properties of these new psoralen derivatives, we decided to further characterize the TMA derivatives for their potential activities on the expression of IL-8 gene, known to be involved in the lung inflammatory process in CF. […] More specifically, we were first interested in identifying compounds with low antiproliferative activity, but effective in downmodulating inflammatory gene expression without achieving a full suppression of these genes. We therefore employed IB3-1 cystic fibrosis cells, incubated for 5 h with two concentrations (1 μM and 10 μM) of selected compounds, and then treated with TNF-α ([…]). In the IB3-1 cystic fibrosis cellular model, NF-κB-dependent genes, including the gene encoding for the proinflammatory protein IL-8, generally are activated following infection with P. aeruginosa or treatment with TNF-α or IL-1β [26, 28, 31]. This feature is very important in the pathophysiology of CF, since several clinical complications are caused by exacerbation of this inflammatory response. After 1 day of incubation, cellular RNA was isolated for RT-qPCR analysis. All the TMA analogues found to be active in inhibiting NF-κB/DNA interactions were analyzed for their effects on inhibition of TNF-α-induced accumulation of IL-8 mRNA.

IP-10 = assay: Bioplex analysis of IP-10 secretion in TNF-α-induced IB3-1 cells; conditions: 1 μM, TNF-α-stimulated IB3-1 cells, three independent experiments
Protocol: as §1, §2

Cc1oc2c(C)cc3c(C)cc(=O)oc3c2c1C [Compound 1]
Variation of other secreted proteins [1]: less than 10% | inhibition at 1 µM (IL-8 mRNA; 1 μM compound): 57% | inhibition at 10 µM (IL-8 mRNA; 10 μM compound): 56% | Increase of TNF-α-inducible IP-10 (IP-10): more than twofold

Source: paper PMC5635289, “Differential Effects of Angelicin Analogues on NF-κB Activity and IL-8 Gene Expression in Cystic Fibrosis IB3-1 Cells” (Mediators of Inflammation, 2017)
